# Reference: US4312874A, “Antibacterial compounds, processes for their preparation and compositions containing them” (Beecham Group Limited, priority 1979, dated 1982)
# Read-outs that look alike come from different tables or passages of the source.
# Key:
# [1] = system: M. suipneumoniae UCD 1; assay: in vitro MIC by serial dilution in Friis modified agarose medium; format: cell-based; details: Mesomycoplasma hyopneumoniae, UCD1; Table 3
# [2] = system: E. coli E1; assay: MIC by agar dilution, veterinary bacteria; details: Escherichia coli, E1, 24 h
# [3] = system: Pasteurella multocida 1633; assay: MIC by serial dilution in nutrient agar with 5% chocolated horse blood; format: cell-based; details: Table 1
# [4] = system: M. siupneumoniae HK(2); assay: in vitro MIC by serial dilution in Friis modified agarose medium; format: cell-based; details: Table 3
# [5] = system: M. hyosnoviae ATCC 25591; assay: as above; format: cell-based; details: Table 3
# [6] = system: M. pneumoniae ATCC 15492; assay: as above; format: cell-based; details: Mycoplasmoides pneumoniae, ATCC15492; Table 3
# [7] = system: Haemophilus influenzae Q1; assay: MIC by serial dilution in nutrient agar with 5% chocolated horse blood; format: cell-based; details: Table 1
# [8] = system: M. suipneumoniae ATCC 25095; assay: in vitro MIC by serial dilution in Friis modified agarose medium; format: cell-based; details: Mesomycoplasma hyopneumoniae, ATCC25095; Table 3
# [9] = system: M. suipneumoniae TAM 6N; assay: as above; format: cell-based; details: Mesomycoplasma hyopneumoniae, TAM6N; Table 3
# [10] = system: Staph. aureus 152 (pen sens); assay: MIC by agar dilution, veterinary bacteria; details: Staphylococcus aureus, 24 h
# [11] = system: M. dispar NCTC 10125; assay: in vitro MIC by serial dilution in Friis modified agarose medium; format: cell-based
# [12] = system: M. suipneumoniae PW/C/210; assay: as above; format: cell-based; details: Mesomycoplasma hyopneumoniae; Table 3
# [13] = system: Strep. agalactiae SPA1; assay: MIC by agar dilution, veterinary bacteria; details: Streptococcus agalactiae, SPA1, 24 h
# [14] = system: M. suipneumoniae J2206/183b; assay: in vitro MIC by serial dilution in Friis modified agarose medium; format: cell-based; details: Mesomycoplasma hyopneumoniae, Table 3
# [15] = system: M. suipneumoniae NCTC 10110; assay: as above; format: cell-based; details: Mesomycoplasma hyopneumoniae, NCTC10110; Table 3
# [16] = system: S. typhimurium S18; assay: MIC by agar dilution, veterinary bacteria; details: Salmonella enterica, 24 h
# [17] = system: Staph. aureus W2827; assay: MIC by serial dilution in nutrient agar with 5% chocolated horse blood; format: cell-based; details: Staphylococcus aureus, Table 1
# [18] = system: Haemophilus influenzae Wy21; assay: as above; format: cell-based
# [19] = system: Corynebacterium xerosis 9755; assay: as above; format: cell-based; details: Table 1
# [20] = system: M. hyorhinis ATCC 25021; assay: in vitro MIC by serial dilution in Friis modified agarose medium; format: cell-based; details: Mesomycoplasma hyorhinis, ATCC25021; Table 3
# [21] = system: Bord. bronchiseptica B09; assay: MIC by agar dilution, veterinary bacteria; details: Bordetella bronchiseptica, B09, 24 h
# [22] = system: Neisseria catarrhalis 1502; assay: MIC by serial dilution in nutrient agar with 5% chocolated horse blood; format: cell-based
# [23] = system: M. hyorhinis ATCC 23234; assay: in vitro MIC by serial dilution in Friis modified agarose medium; format: cell-based; details: Mesomycoplasma hyorhinis, ATCC23234; Table 3
# [24] = system: Staph. aureus Oxford; assay: MIC by serial dilution in nutrient agar with 5% chocolated horse blood; format: cell-based; details: Staphylococcus aureus; Table 1
# [25] = system: Strep. suis (group D) SPS11; assay: MIC by agar dilution, veterinary bacteria; details: Streptococcus suis, 24 h
# [26] = system: Corynebacterium pyogenes CY1; assay: MIC by agar dilution, veterinary bacteria; details: CY1, 24 h
# [27] = system: Strep. pneumoniae CN33; assay: MIC by serial dilution in nutrient agar with 5% chocolated horse blood; format: cell-based; details: Streptococcus pneumoniae, Table 1
# [28] = system: K. aerogenes A; assay: as above; format: cell-based; details: Klebsiella aerogenes
# [29] = system: M. bovigenitalium ATCC 14173; assay: in vitro MIC by serial dilution in Friis modified agarose medium; format: cell-based
# [30] = system: M. suipneumoniae MS 16; assay: as above; format: cell-based; details: Mesomycoplasma hyopneumoniae, MS16; Table 3
# [31] = system: Erysipelothrix rhusiopathiae NCTC 8163; assay: MIC by agar dilution, veterinary bacteria; details: NCTC8163, 24 h
# [32] = system: M. gallisepticum S6; assay: in vitro MIC by serial dilution in Friis modified agarose medium; format: cell-based; details: Mycoplasmoides gallisepticum, Table 3
# [33] = Serum binding by ultrafiltration; format: in vitro ADME; details: pig, 8 mcg/ml, read-out: % Bound to Pig Serum (converted)
# Description: Serum binding was assessed by ultrafiltration of procine serum containing compounds at 8 mcg/ml, and through an Amicon CF50A ultrafiltration cone. Separation of ultrafiltrate was achieved by centrifugation. Unbound concentrations of compound were measured in the ultrafiltrate by microbiological assay (B. subtilis ATCC 6633) against standards prepared in saline.
# [34] = system: E. coli NCTC 10418; assay: MIC by serial dilution in nutrient agar with 5% chocolated horse blood; format: cell-based; details: Escherichia coli, NCTC10418
# [35] = system: Ps. aeruginosa 10662; assay: as above; format: cell-based; details: Pseudomonas aeruginosa
# [36] = system: M.suipneumoniae NB12; assay: in vitro MIC by serial dilution in Friis modified agarose medium; format: cell-based; details: Mesomycoplasma hyopneumoniae, Table 3
# [37] = system: Bord. bronchiseptica B08; assay: MIC by agar dilution, veterinary bacteria; details: Bordetella bronchiseptica, B08, 24 h
# [38] = system: Staph. aureus B4 (pen resis); assay: MIC by agar dilution, veterinary bacteria; details: Staphylococcus aureus, 24 h
# [39] = system: Past. multocida PA1; assay: MIC by agar dilution, veterinary bacteria; details: Pasteurella multocida, PA1, 24 h
# [40] = system: Staph. aureus Russell; assay: MIC by serial dilution in nutrient agar with 5% chocolated horse blood; format: cell-based; details: Staphylococcus aureus; Table 1
# [41] = system: Past. multocida PA2; assay: MIC by agar dilution, veterinary bacteria; details: Pasteurella multocida, PA2, 24 h
smiles,measurement,setting,value
"CC(=O)C=C(C)CC1OCC(CC2OC2C(C)C(C)O)C(O)C1O [Example 1, 1-[3R,4R-Dihydroxy-5S-(2S,3S-epoxy-5S-hydroxy-4S-methylhexyl)-2,3,5,6-tetrahydropyran-2-S-yl]-2-methylpent-2E-en-4-one]",MIC,[1],> 10 µg/mL
same,MIC,[2],> 80 µg/mL
same,MIC,[3],5 µg/mL
same,MIC,[4],> 10 µg/mL
same,MIC,[5],5 µg/mL
same,MIC,[6],> 10 µg/mL
same,MIC,[7],0.5 µg/mL
same,MIC,[8],10 µg/mL
same,MIC,[9],> 10 µg/mL
same,MIC,[10],10 µg/mL
same,MIC,"[11]; Table 3, read-out: MIC",2.5 µg/mL
same,MIC,[12],10 µg/mL
same,MIC,[13],> 80 µg/mL
same,MIC,[14],> 10 µg/mL
same,MIC,[15],> 10 µg/mL
same,MIC,[16],> 80 µg/mL
same,MIC,[17],> 100 µg/mL
same,MIC,"[18]; Table 1, read-out: MIC",1 µg/mL
same,MIC,[19],> 100 µg/mL
same,MIC,[20],10 µg/mL
same,MIC,[21],20 µg/mL
same,MIC,"[22]; Table 1, read-out: MIC",0.2 µg/mL
same,MIC,[23],10 µg/mL
same,MIC,[24],1 µg/mL
same,MIC,[25],> 80 µg/mL
same,MIC,[26],> 80 µg/mL
same,MIC,[27],25 µg/mL
same,MIC,"[28]; Table 1, read-out: MIC",> 100 µg/mL
same,MIC,"[29]; Table 3, read-out: MIC",0.5 µg/mL
same,MIC,[30],10 µg/mL
same,MIC,[31],> 80 µg/mL
same,MIC,[32],> 10 µg/mL
same,fraction unbound,[33],0.852
same,MIC,"[34]; Table 1, read-out: MIC",> 100 µg/mL
same,MIC,"[35]; Table 1, read-out: MIC",> 100 µg/mL
same,MIC,[36],> 10 µg/mL
same,MIC,[37],> 80 µg/mL
same,MIC,[38],10 µg/mL
same,MIC,[39],5 µg/mL
same,MIC,[40],5 µg/mL
same,MIC,[41],5 µg/mL
"CCC(=O)C=C(C)CC1OCC(CC2OC2C(C)C(C)O)C(O)C1O [Example 2, 1-[3R,4R-Dihydroxy-5S-(2S,3S-epoxy-5-S-hydroxy-4S-methylhexyl)tetrahydropyran-2S-yl]-2-methylhex-2E-en-4-one]",MIC,[1],5 µg/mL
same,MIC,[2],> 40 µg/mL
same,MIC,[3],2.5 µg/mL
same,MIC,[4],2.5 µg/mL
same,MIC,[5],2.5 µg/mL
same,MIC,[6],> 10 µg/mL
same,MIC,[7],0.2 µg/mL
same,MIC,[8],2.5 µg/mL
same,MIC,[9],2.5 µg/mL
same,MIC,[10],0.312 µg/mL
same,MIC,[11],0.5 µg/mL
same,MIC,[12],2.5 µg/mL
same,MIC,[13],20 µg/mL
same,MIC,[14],5 µg/mL
same,MIC,[15],5 µg/mL
same,MIC,[16],> 40 µg/mL
same,MIC,[17],2.5 µg/mL
same,MIC,[18],0.5 µg/mL
same,MIC,[19],25 µg/mL
same,MIC,[20],2.5 µg/mL
same,MIC,[21],40 µg/mL
same,MIC,[22],0.5 µg/mL
same,MIC,[23],2.5 µg/mL
same,MIC,[24],1.2 µg/mL
same,MIC,[25],> 40 µg/mL
same,MIC,[26],> 40 µg/mL
same,MIC,[27],12.5 µg/mL
same,MIC,[28],> 50 µg/mL
same,MIC,[29],0.1 µg/mL
same,MIC,[30],2.5 µg/mL
same,MIC,[31],> 40 µg/mL
same,MIC,[32],> 10 µg/mL
same,fraction unbound,[33],0.739
same,MIC,[34],> 50 µg/mL
same,MIC,[35],> 50 µg/mL
same,MIC,[36],2.5 µg/mL
same,MIC,[37],> 40 µg/mL
same,MIC,[38],0.625 µg/mL
same,MIC,[39],0.625 µg/mL
same,MIC,[40],2.5 µg/mL
same,MIC,[41],0.312 µg/mL
"CCCCC(=O)C=C(C)CC1OCC(CC2OC2C(C)C(C)O)C(O)C1O [Example 3, 1-[3R,4R-Dihydroxy-5S-(2S,3S-epoxy-5S-hydroxy-4S-methylhexyl)tetrahydropyran-2S-yl]-2-methyloct-2E-en-4-one]",MIC,[1],1 µg/mL
same,MIC,[2],> 80 µg/mL
same,MIC,[3],0.5 µg/mL
same,MIC,[4],1 µg/mL
same,MIC,[5],0.25 µg/mL
same,MIC,[6],10 µg/mL
same,MIC,[7],0.2 µg/mL
same,MIC,[8],1 µg/mL
same,MIC,[9],1 µg/mL
same,MIC,[10],2.5 µg/mL
same,MIC,"[11]; Table 3, read-out: MIC",0.25 µg/mL
same,MIC,[12],0.5 µg/mL
same,MIC,[13],10 µg/mL
same,MIC,[14],1 µg/mL
same,MIC,[15],1 µg/mL
same,MIC,[16],> 80 µg/mL
same,MIC,[17],2.5 µg/mL
same,MIC,"[18]; Table 1, read-out: MIC",0.2 µg/mL
same,MIC,[19],100 µg/mL
same,MIC,[20],0.5 µg/mL
same,MIC,[21],40 µg/mL
same,MIC,"[22]; Table 1, read-out: MIC",0.5 µg/mL
same,MIC,[23],0.5 µg/mL
same,MIC,[24],1 µg/mL
same,MIC,[25],> 80 µg/mL
same,MIC,[26],> 80 µg/mL
same,MIC,[27],5 µg/mL
same,MIC,"[28]; Table 1, read-out: MIC",> 100 µg/mL
same,MIC,"[29]; Table 3, read-out: MIC",0.05 µg/mL
same,MIC,[30],0.5 µg/mL
same,MIC,[31],> 80 µg/mL
same,MIC,[32],> 10 µg/mL
same,fraction unbound,[33],0.469
same,MIC,"[34]; Table 1, read-out: MIC",> 100 µg/mL
same,MIC,"[35]; Table 1, read-out: MIC",> 100 µg/mL
same,MIC,[36],1 µg/mL
same,MIC,[37],> 80 µg/mL
same,MIC,[38],2.5 µg/mL
same,MIC,[39],2.5 µg/mL
same,MIC,[40],1 µg/mL
same,MIC,[41],1.25 µg/mL
